Legend:
[1] = biological target: T1, (Homo sapiens, UniProt P00918); test: Carbonic anhydrase activity, micromethod of Maren (time to lower pH of CO2-saturated carbonate/bicarbonate buffer, phenol red endpoint); type: biochemical; conditions: pure enzyme from human erythrocyte; 0°-4° C.; pH 9.9 to 6.8
T1 construct: pure CA11 enzyme from human erythrocyte; from tissue; host or cells: human erythrocytes (purified enzyme)
Experimental: 1. Carbonic anhydrase activity was assayed according to the micromethod of Maren (J. PharmacoI. Exptl. Therap., 130, 26-29, 1960). All solutions and reagents were maintained at 0°-4° C. The final assay mixture contained 16 mM phenol red, added enzyme and 62.5 mM sodium carbonate/bicarbonate. Its volume was kept constant at 0.8 mL. The time required for the added enzyme to lower the pH of CO2-saturated carbonate/bicarbonate buffer from pH 9.9 to 6.8 was measured using the color change of phenol red as endpoint. T1 is the time recorded for the reaction containing no enzyme. T2 is the time recorded for the reaction containing pure CA11 enzyme from human erythrocyte, or an unknown amount in a sample. Enzyme activities (unit) were calculated using the formula:
Unit/ug=(T1 -T2)(T2 *ug protein used in assay)
IC50 of a carbonic anhydrase inhibitor is the concentration that lowers the enzyme activity to half.

[2] = Cysteine reactivity probe assay (HPLC); set-up: unit not given here; conditions: cysteine in phosphate buffer pH 7.4, HPLC; unit not given
Text: An additional measurement made on some compounds of the invention is the cysteine reactivity. This reactivity measurement gives an indication of the likelihood that a compound will react with cysteine residues in the eye, and so is a measure of the likelihood of development of sensitization in the eye to that compound. […] In general, substituents that are more highly electron withdrawing, such as sulfonyl or carbonyl moieties adjacent to the thiazole ring, increase cysteine reactivity.
2. Cysteine reactivity was measured by the following probe assay procedure. Three stock solutions of: A) the CAI compound to be tested in […] phosphate buffer; B) cysteine ([…]) in 50 mM phosphate buffer at pH 7.4; and C) phosphate buffer (50 mM) at pH 7.4, were prepared. Each solution was deoxygenated by bubbling with N2 for 10-15 min.
Reaction mixtures were prepared in triplicate by mixing equal volumes (1 mL) of two stock solutions as follows:
Hydrolytic or other chemical reactivity was detected by comparison of solutions I and II. Cysteine related reactions were detected by comparison of solutions II and III. All samples were assayed using HPLC under constant conditions and over a short period of time to minimize experimental variations in peak heights not related to CAI concentration differences. Each of the three solutions were assayed in sequence to give three sets of experimental values: Ia, IIa, IIIa, Ib, IIb, IIIb, Ic, IIc, IIIc and each set was compared separately. Mean and standard deviations of the three sets were recorded.

IC50 [1]	Cysteine reactivity [2]	SMILES
7.7 nM	0.001	CCCCC#Cc1ncc(S(N)(=O)=O)s1 [2-(1-Hexynyl)-5-thiazole sulfonamide]
10 nM		CCCCCC(O)c1ncc(S(N)(=O)=O)s1 (stereo not shown) [2-(1-Hydroxyhexyl)-5-thiazole sulfonamide]
3.5 nM	< 0.000024	NS(=O)(=O)c1cnc(C(=O)C2CC2)s1 [2-(1-Ketocyclopropyl)-5-thiazole sulfonamide]
10.3 nM		COCOCC(=O)c1ncc(S(N)(=O)=O)s1 [2-(2-(methoxymethoxy)ethanoyl)-5-thiazole sulfonamide]
26 nM		CN(C)CCCC(=O)c1ncc(S(N)(=O)=O)s1 [2-(4-(N,N-dimethyl)aminobutanoyl)-5-thiazole sulfonamide]
6.7 nM	reactive	CCS(=O)(=O)c1ncc(S(N)(=O)=O)s1 [2-(Ethylsulfonyl)-5-thiazole sulfonamide, 2-Ethylsulfonyl-5-thiazole sulfonamide]
6.3 nM	< 0.0000024	CCSc1ncc(S(N)(=O)=O)s1 [2-(Ethylthio)-5-thiazole sulfonamide, 2-Ethylthio-5-thiazole sulfonamide]
14.5 nM	reactive	CN(C)CCN(C)S(=O)(=O)c1ncc(S(N)(=O)=O)s1 [2-(N-Methyl-N-(dimethylamino)ethyl)sulfamyl-5-thiazole sulfonamide]
5.3 nM		CC(C)(C)NS(=O)(=O)c1ncc(S(N)(=O)=O)s1 [2-(N-t-butylsulfamyl)-5-thiazole sulfonamide]
3.5 nM	0.00007	CCCCCC(=O)c1ncc(S(N)(=O)=O)s1 [2-Hexanoyl-5-thiazole sulfonamide, 2-(1-Hexanoyl)-5-thiazole sulfonamide]
20.6 nM		CCCCCCc1ncc(S(N)(=O)=O)s1 [2-Hexyl-5-thiazole sulfonamide, 2-(1-Hexyl)-5-thiazole sulfonamide]
20 nM		NS(=O)(=O)c1cnc(-c2ccccc2)s1 [2-Phenyl-5-thiazole sulfonamide]
12.7 nM	reactive	NS(=O)(=O)c1cnc([S+]([O-])c2ccccc2)s1 (stereo not shown) [2-Phenylsulfinyl-5-thiazole sulfonamide]
5.5 nM	reactive	NS(=O)(=O)c1cnc(S(=O)(=O)c2ccccc2)s1 [2-Phenylsulfonyl-5-thiazole sulfonamide]
5.5 nM	N.R.	NS(=O)(=O)c1cnc(Sc2ccccc2)s1 [2-Phenylthio-5-thiazole sulfonamide, 2-Thiophenyl-5-thiazole sulfonamide]
15 nM		NS(=O)(=O)c1nc2c(s1)CCCC2 [2-Sulfamyl-4,5,6,7-tetrahydrobenzothiazole]
61 nM	N.R.	NS(=O)(=O)c1nccs1 [2-Thiazole sulfonamide]
33 nM		COc1ccc(-c2csc(S(N)(=O)=O)n2)cc1 [4-(4-Methoxyphenyl)-2-thiazole sulfonamide]

IC50 [1]	Cysteine reactivity [2]	SMILES
77 nM	< 0.000005	CCOC(=O)c1csc(S(N)(=O)=O)n1 [4-Carboethoxy-2-thiazole sulfonamide, 4-carboethoxy-2-thiazole sulfonamide]
120 nM	0.00005	Cc1csc(S(N)(=O)=O)n1 [4-Methyl-2-thiazole sulfonamide]
20 nM		NS(=O)(=O)c1nc(-c2ccccc2)cs1 [4-Phenyl-2-thiazole sulfonamide]
9.3 nM	reactive	CN1CCN(S(=O)(=O)c2ncc(S(N)(=O)=O)s2)CC1 [4-methyl-1-(2-(5-sulfamylthiazoyl)sulfonyl)piperazine]
5.6 nM	0.00019	CCCCC#Cc1cnc(S(N)(=O)=O)s1 [5-(1-Hexynyl)-2-thiazole sulfonamide]
9.1 nM		COC(=O)CCSc1cnc(S(N)(=O)=O)s1 [5-(2-Carbomethoxyethyl)thio-2-thiazole sulfonamide]
6.6 nM		NS(=O)(=O)c1ncc(SCCO)s1 [5-(2-Hydroxyethyl)thio-2-thiazole sulfonamide]
4.2 nM	0.000024	CCSc1cnc(S(N)(=O)=O)s1 [5-(Ethylthio)-2-thiazole sulfonamide]
2.7 nM	0.005	NS(=O)(=O)c1ncc(Sc2ccccc2)s1 [5-(Phenylthio)-2-thiazole sulfonamide]
5 nM	reactive	NS(=O)(=O)c1ncc(C(=O)c2ccccc2)s1 [5-Benzoyl-2-thiazole sulfonamide]
9.3 nM		NS(=O)(=O)c1ncc(Cc2ccccc2)s1 [5-Benzyl-2-thiazole sulfonamide]
7.8 nM		NS(=O)(=O)c1ncc(Br)s1 [5-Bromo-2-thiazole sulfonamide]
5.9 nM	0.00002	NS(=O)(=O)c1ncc(Cl)s1 [5-Chloro-2-thiazole sulfonamide]
30 nM		COc1ccc(-c2nc(S(N)(=O)=O)sc2Cl)cc1 [5-Chloro-4-(4-methoxyphenyl)-2-thiazole sulfonamide]
11.4 nM	reactive	CC[S+]([O-])c1cnc(S(N)(=O)=O)s1 (stereo not shown) [5-Ethylsufinyl-2-thiazole sulfonamide, 5-Ethylsulfinyl-2-thiazole sulfonamide]
84 nM	N.R.	Cc1sc(S(N)(=O)=O)nc1-c1ccccc1 [5-Methyl-4-phenyl-2-thiazole sulfonamide]
6 nM		NS(=O)(=O)c1ncc(-c2ccccc2)s1 [5-Phenyl-2-thiazole sulfonamide]
6 nM	reactive	NS(=O)(=O)c1ncc(S(=O)(=O)c2ccccc2)s1 [5-Phenylsulfonyl-2-thiazole sulfonamide, 5-(Phenylsulfonyl)-2-thiazole sulfonamide]

SMILES	IC50 [1]	Cysteine reactivity [2]
CCCCOc1ncc(S(N)(=O)=O)s1 [2-(1-Butoxy)-5-thiazole sulfonamide]	16 nM	< 0.00005
CC(=O)OCCCC(=O)c1cnc(S(N)(=O)=O)s1 [5-(4-acetoxybutanoyl)-2-thiazole sulfonamide]	8.4 nM	reactive
